These results are taken from patent publication US12629356B2, “Expansion of tumor infiltrating lymphocytes with potassium channel agonists and therapeutic uses thereof” (Iovance Biotherapeutics, Inc., priority 2017, dated 2026).

The test system of assay [1] is normal donor PBMC lines and TIL lines from melanoma tumors. The experiment in a line: Kinetic expression of KCa3.1 after activation with anti-CD3 and anti-CD28 with or without SKA-31 (flow cytometry). The class given is cell-based, human. As to conditions: 50 nM SKA-31; PBMCs and melanoma TILs stimulated with anti-CD3 and anti-CD28; day 1, 3 and 7. How it is done: To study kinetic expression of KCa3.1, wo normal donor PBMC lines and three TIL lines from melanoma tumors were activated with anti-CD3 and anti-CD28 with the KCa3.1 agonist SKA-31 (Formula (2)). PBMCs and TILs at day 0 (baseline) were used as controls for KCa3.1 expression. Normal donor PBMCs and three TIL lines (M004, M10^11, and M1023) were thawed and cultured in TIL culture media (TIL CM) containing RPMI 1640 (Thermo Fisher Scientific, Waltham, MA, USA), 1 mM Glutamax (Thermo Fisher Scientific), 1 mM pyruvate (Thermo Fisher Scientific), 50 μM 2-mercaptoethanol (Thermo Fisher Scientific), and 1× Pen-Strep (Thermo Fisher Scientific), and 10% human AB serum (Gemini Bio-Products, West Sacramento, CA, USA) with IL-2 (6000 IU/mL) (CellGenix Inc., Portsmouth, NH, USA). On the next day, PBMCs were activated with anti-CD3 (Clone CLB-T3/4.E, Cell Sciences) ([…]) and anti-CD28 (Clone 28.2, BioLegend, San Diego, CA, USA) (500 ng/mL) with or without 50 nM SKA-31 (Sigma-Aldrich Co., St. Louis, MO, USA). […] Cells were harvested on day 1, 3, and 7 following activation, stained with anti-CD3 (clone SP34-2, BD Biosciences), anti-CD8 (clone RPA-T8, BioLegend), anti-KCa3.1 (Polyclonal, Alomone Lab), and AmCyan (Thermo Fisher Scientific), and analyzed by flow cytometry using a BD FACS CANTO II system.
(Flow cytometry measures light scatter and fluorescence of single cells or particles in a stream.)

The subject of assay [2] is Melanoma TIL lines. Nature of the assay: Fold expansion of melanoma TIL lines in 14-day REP with or without SKA-31. As to conditions: ten melanoma TIL lines; 50 mM SKA-31 (so in the source); day 14 of REP; p=0.002. The class given is cell-based, human. How it is done: (§1) Melanoma TIL lines were propagated using a REP protocol for 14 days with or without the KCa3.1 agonist SKA-31 (Formula (2)). Ten TIL lines (M004, M10^11, M1017, M1020, M1021, M1025, M1030, M1034, M1036, and M1045) were propagated with REP with anti-CD3 OKT-3 antibody (Miltenyi Biotech) (30 ng/mL) using irradiated PBMC feeder cells at ratio of TILs to feeder cells of 1 to 100 in G-REX 24 well plates (Wilson Wolf Manufacturing). Approximately 1×10^6 TILs were used per G-REX 24 well on day 0 in 8 mL of TIL REP media (TIL CM and Aim V media (Thermo Fisher Scientific) at a 1 to 1 ratio) with or without 50 mM of SKA-31. On day 2, the cultures were supplemented with IL-2 (6000 IU/mL). Half of the media was replaced with fresh AIMV media on day 5 with or without 50 mM SKA-31. The REP cultures were supplemented with IL-2 (3000 IU/mL) on day 9 and 12 respectively. On day 14, TTLs were counted and calculated for fold expansion.

In assay [3] the test system is Melanoma TIL lines. Nature of the assay: Phenotyping of melanoma TILs (CD27, CD28) at end of REP with or without SKA-31. The class given is cell-based, human. As to conditions: ten melanoma TIL lines, end of 14-day REP, vs TILs without SKA-31. How it is done:
as §1
Ten melanoma TIL lines were expanded with the REP protocol for 14 days with or without the KCa3.1 agonist SKA-31 (Formula (2)) as in Example 2. At the end of each REP, TILs were harvested and phenotyped with anti-CD3 (clone SP34-2, BD Biosciences), anti-CD28 (clone CD28.2, BD biosciences), and anti-CD27 (M-T271, BD Biosciences) antibodies.

The test system of assay [4] is pre-REP TILs from tumor fragments. The experiment in a line: CCR7+ and CD25+ expression in pre-REP TILs grown with IL-2 alone or IL-2 with SKA-31 (flow cytometry). The class given is cell-based. As to conditions: vs no treatment. As to the method: Three tumors (kidney, estrogen receptor positive (ER^+) breast, and melanoma) were grown with either IL-2 alone or IL-2 with SKA-31 […] to evaluate the performance of a KCa3.1 agonist in the pre-REP stage. The resected tumor samples were cut into 3-5 mm^2 fragments. Four to eight tumor fragments were placed into GREX-10 flask containing TIL CM (previously described) with IL-2 (6000 IU/mL) with or without 100 nM SKA-31. The culture was supplemented with IL-2 every 5 days until harvested. After three weeks, TIL was collected, counted, and stained with anti-CD8 (clone RPA-T8, BioLegend), anti-CD4 (OKT-4, BioLegend), anti-CCR7 (BioLegend G043H7), or AmCyan (Thermo Fisher Scientific), and analyzed by flow cytometry using a BD FACS CANTO II system. The results of CCR7 expression in the three tumor fragments are presented in FIG. 13, with representative flow cytometry results for one of the tumors presented in FIG. 14.
Further evidence that SKA-31 enhances expression of CD25 and CCR7 was also obtained. Pre-REP TIL were grown with either IL-2 (6000 IU/mL) alone or with SKA-31 and were analyzed after 21 days (n=14; tumor types: breast cancer (8), melanoma (3), kidney (2), ovarian (1)). CCR7^+ expression was assessed by flow cytometry in CD4^+ (FIG. 15, top) and CD8^+subsets (FIG. 15, bottom). CD25^+expression was assessed by flow cytometry in CD4^+(FIG. 17, top) and CD8′ subsets (FIG. 17, bottom) (n=16, breast cancer (8), melanoma (3), kidney (3), ovarian (2)). In both cases, p values represent the difference between no treatment and SKA-31 using student's unpaired T test, and p values<0.05 are considered as statistically significant.

Assay [5] deals with pre-REP TILs from ovarian and breast cancer tumor fragments. The experiment in a line: Absolute cell counts of pre-REP TILs from ovarian and breast tumor fragments with or without SKA-31. The class given is cell-based. As to conditions: 50 nM SKA-31 with IL-2, three weeks, vs IL-2 alone. As to the method:
Tumor fragments from ovarian and breast cancer (triple positive, ER^+/PR^+/HER2^+) tumors were grown in a pre-REP stage with either IL-2 alone or IL-2 with SKA-31 (Formula (2)) at a concentration of 50 nM. The resected tumor samples were cut into 3-5 mm^2 fragments. Four to eight tumor fragments were placed into GREX-10 flasks containing TIL CM (previously described) with IL-2 (6000 IU/mL). The culture was supplemented with IL-2 every 5 days until harvested. After three weeks, TILs were collected, counted, and stained with anti-CD8 antibody (clone RPA-T8, BioLegend), anti-CD4 antibody (OKT-4, BioLegend), anti-CD3 antibody (clone SP34-2, BD Biosciences), and AmCyan (Thermo Fisher Scientific), and analyzed by flow cytometry using a BD FACS CANTO II system.

In assay [6] the test system is TILs co-cultured with melanoma tumor cells. Nature of the assay: IFN-γ release (ELISA) from TILs prepared with and without SKA-31 co-cultured with melanoma tumor cells. The class given is cell-based. Conditions: 24 hours co-culture, 3:1 E:T ratio, vs TILs prepared without SKA-31. How it is done:
FIG. 21 illustrates the results of IFN-γ release as measured by enzyme-linked immunosorbent assay (ELISA). TILs prepared with and without SKA-31 were co-cultured with melanoma tumor cells for 24 hours at a TIL:melanoma cell ratio of 3:1 (i.e., a 3:1 effector:target or E:T ratio). Blocking of the TCR MHC-I was performed using 80 μg/mL of antibody clone W6/32 (BioLegend).
Background: An ELISA detects its analyte on a solid surface through an enzyme-linked reagent.

Assay [7] has as its system melanoma cells. Nature of the assay: Tumor cell killing by TILs prepared with and without SKA-31 (caspase-3 marker). The class given is cell-based. As to conditions: different E:T ratios.
The mark [8] stands for this setting: breast (ER+/PR+/HER2+) tumor fragments.

Consider `Nc1nc2c(ccc3ccccc32)s1` [SKA-31, naphtho[1,2-d]thiazol-2-ylamine], for which the KCa3.1 expression entry in assay [1] was “did not alter KCa3.1 expression”. The “expansion of TILs in REP relative to control without KCa3.1 agonist” value in assay [2] was found to be 1.42 fold. For the same molecule, the “CD8+CD27+CD28+ T cell subset” value in assay [3] (p=0.002) is reported as “greater expansion”. Moreover, the “CD8+CD27+ T cell subset” value in assay [3] (p=0.04) is given as “greater expansion”. Moreover, the “CD8+CD28+ T cell subset” value in assay [3] (p=0.04) is “greater expansion”. Moreover, in assay [4] (pre-REP TIL, IL-2 6000 IU/mL with SKA-31, 21 days, n=14 tumors), the “CCR7+ expression in CD4+ and CD8+ subsets” value was “enhances”. The “CD25+ expression in CD4+ and CD8+ subsets” value in assay [4] (pre-REP TIL, IL-2 6000 IU/mL with SKA-31, 21 days, n=16 tumors) was “enhances”. In addition, the “CCR7+ expression in CD4+ and CD8+ TILs” value in assay [4] (three tumor fragments (kidney, ER+ breast, melanoma), pre-REP, 100 nM SKA-31 with IL-2, three weeks) is on record as “increased”. The “absolute cell counts, CD3^mCD4^m TILs” value in assay [5] (setting [8]) is “increased”. In addition, the “absolute cell counts, CD3^mCD8^m TILs” value in assay [5] (setting [8]) and in assay [5] (ovarian tumor fragments) was “increased” each time. Also, the IFN-γ release entry is listed as “statistically significant increase” in assay [6] (one TIL cell line) and “no adverse effect” in assay [6] (second TIL cell line). In addition, the “tumor killing (caspase-3)” value in assay [7] (M1032 TIL line) and in assay [7] (M1041 TIL line) was “no adverse effects” each time.
